Assay: In vivo ciprofloxacin mass in aspirated middle ear fluid by HPLC/MS after delivery through implanted tympanostomy tubes
Settings: after 5 minutes of therapeutic delivery (Ciprodex)
Description: N/A indicates an amount of drug below the detection limit of 100 ng/ml. Chinchillas underwent a sequential series of middle ear saline washes, and middle ear fluid was aspirated for the subsequent analysis by LC-MS.
Chinchillas were randomly allocated into two groups (LI-TT, denoted as Test TT, and SM-TT, denoted as SoC TT).

For `O=C(O)c1cn(C2CC2)c2cc(N3CCNCC3)c(F)cc2c1=O` [ciprofloxacin], the “mass of ciprofloxacin within the middle ear, test tubes compared to SoC TTs” value was “up to 5 times”.

From patent US20240245602A1, “DRUG COMBINATION KITS AND METHODS OF DRUG DELIVERY” (President and Fellows of Harvard College, priority 2020, published 2024)
